Laboratory results reported in patent US20150368195A1, “INDOLINE COMPOUNDS FOR TREATMENT AND/OR PREVENTION OF INFLAMMATION DISEASES” (Taipei Medical University, priority 2014, published 2015).

Experiments:
CTGF = assay: pro-fibrogenic mediator-induced CTGF production, Western blot; type: cell-based, human; settings: WI-38 lung fibroblasts
Procedure: (§1) Western blot analysis was performed. First, WI-38 lung fibroblasts were incubated with different concentrations of MPT0E028 (0.01, 0.03, 0.1, 0.3, or 1 μM) (FIG. 10A) or MPT0G009 (0.01, 0.03, 0.1, 0.3, or 1 μM) (FIG. 10B) for 30 min before and during incubation for 2 h with TGF-β (10 ng/mL). WI-38 lung fibroblasts were incubated with 1 μM MPT0E028 and MPT0G009 for 30 min and following another incubation for 2 h with 1 U/ml thrombin (FIG. 10C) and 10 nM ET-1 (FIG. 10D). The collagen I production from WI-38 lung fibroblasts stimulated by 10 ng/mL TGF-β for 24 h was inhibited with 1 μM MPT0E028 and MPT0G009 pretreatment (FIG. 10E).
WI-38 cells, a normal human embryonic lung fibroblast cell line, were obtained from American Type Culture Collection (Manassas, Va.). Cells were grown in MEM nutrient mixture, containing 10% FCS, 2 mM L-glutamine, 0.1 mM NEAA, 1 mM sodium pyruvate, 50 U/ml penicillin G, and 100 μg/ml streptomycin, in a humidified 37° C. incubator with 5% CO2 Cells were used between passages 18 and 30 for all experiments. After reaching confluence, cells were seeded onto 6-cm dishes for immunoblotting.
Western blot analyses were performed as described previously (Chen B C, Chang Y S, Kang J C, Hsu M J, Sheu J R, Chen T L, et al. Peptidoglycan induces nuclear factor-kappaB activation and cyclooxygenase-2 expression via Ras, Raf-1, and ERK in RAW 264.7 macrophages. J Biol Chem 2004; 279:20889-97). Briefly, WI-38 lung fibroblasts were cultured in 6-cm dishes. After reaching confluence, cells were pretreated with specific inhibitors (E028 and G009) as indicated for 30 min, and then treated with the vehicle (H2O) or 10 ng/ml TGF-β for 2 h (CTGF assay) or 24 h (collagen I assay). Whole-cell lysates ([…]) were subjected to 12% (CTGF) or 8% (collagen I) SDS-PAGE, and transferred onto a polyvinylidene difluoride membrane which was then incubated in TBST buffer (150 mM NaCl, 20 mM Tris-HCl, and 0.02% Tween 20; pH 7.4) containing 5% BSA. Proteins were visualized by specific primary antibodies and then incubated with HRP-conjugated secondary antibodies. The immunoreactivity was detected using enhanced chemiluminescence (ECL) following the manufacturer's instructions. Quantitative data were obtained using a computing densitometer with scientific imaging systems (Kodak, Rochester, N.Y.).
To determine whether the inhibitory effects of MPT0E028 and MPT0G009 on pro-fibrogenic mediators (TGF-β, thrombin, and ET-1) were related to the modulation of CTGF and Collagen I production, Western blot analysis was performed. First, WI-38 lung fibroblasts were incubated with different concentrations of MPT0E028 (0.01, 0.03, 0.1, 0.3, or 1 μM) (FIG. 10A) or MPT0G009 (0.01, 0.03, 0.1, 0.3, or 1 μM) (FIG. 10B) for 30 min before and during incubation for 2 h with TGF-β (10 ng/mL). […] Furthermore, we examined the effects of MPT0E028 and MPT0G009 on other pro-fibrogenic mediators. As shown in FIGS. 10C and 10D, WI-38 lung fibroblasts were incubated with 1 μM MPT0E028 and MPT0G009 for 30 min and following another incubation for 2 h with 1 U/ml thrombin (FIG. 10C) and 10 nM ET-1 (FIG. 10D).

collagen I = assay: TGF-β-induced collagen I production, Western blot; type: cell-based, human; settings: WI-38 lung fibroblasts; 1 μM pretreatment; TGF-β 10 ng/mL 24 h
Procedure: as §1
WI-38 cells, a normal human embryonic lung fibroblast cell line, were obtained from American Type Culture Collection (Manassas, Va.). […]
Western blot analyses were performed as described previously (Chen B C, Chang Y S, Kang J C, Hsu M J, Sheu J R, Chen T L, et al. Peptidoglycan induces nuclear factor-kappaB activation and cyclooxygenase-2 expression via Ras, Raf-1, and ERK in RAW 264.7 macrophages. J Biol Chem 2004; 279:20889-97). […] The immunoreactivity was detected using enhanced chemiluminescence (ECL) following the manufacturer's instructions. Quantitative data were obtained using a computing densitometer with scientific imaging systems (Kodak, Rochester, N.Y.). […]

O=C(/C=C/c1ccc2c(c1)CCN2S(=O)(=O)c1ccccc1)NO [MPT0E028]
ET-1-induced CTGF expression (CTGF; 1 μM, 10 nM ET-1 2 h): inhibited | thrombin-induced CTGF expression (CTGF; 1 μM, 1 U/ml thrombin 2 h): inhibited | TGF-β-induced CTGF production (CTGF; 0.01-1 μM, TGF-β 10 ng/mL 2 h): significantly inhibited | collagen I production (collagen I): inhibited
